Experimental data: patent US11466019B2, “Triazolo[4,5-d] pyramidine derivatives and their use as purine receptor antagonists” (Vernalis (R&D) Limited, priority 2008, dated 2022)

Tests used:
[1] = system: haloperidol-induced deficits in locomotor activity in mice; test: Haloperidol-induced hypolocomotion model (HaloLMA); assay type: in vivo; conditions: female TO mice, intraperitoneal, haloperidol 0.2 mg/kg
Description: Evaluation of Potential Anti-Parkinsonian Activity In Vivo: Haloperidol-Induced Hypolocomotion Model
This approach is also considered a valid method for screening drugs with potential antiparkinsonian effects. Thus, the ability of novel adenosine antagonists to block haloperidol-induced deficits in locomotor activity in mice can be used to assess both in vivo and potential antiparkinsonian efficacy.
Female TO mice (25-30 g) are used for all experiments. Animals are housed in groups of 8 (cage size-40 cm (width) by 40 cm (length) by 20 cm (height)) under 12 hour light/dark cycle (lights on 08:00), in a temperature (20±2° C.) and humidity (55±15%) controlled environment. Animals have free access to food and water, and are allowed at least 7 days to acclimatize after delivery before experimental use.
Liquid injectable haloperidol (e.g., 1 mL Serenance ampoules from Baker Norton, Harlow, Essex, each containing haloperidol BP 5 mg) are diluted to a final concentration of 0.02 mg/mL using saline. Test compounds are typically prepared as aqueous suspensions in 8% Tween. All compounds are administered intraperitoneally in a volume of 10 mL/kg.
1.5 hours before testing, mice are administered 0.2 mg/kg haloperidol, a dose that reduces baseline locomotor activity by at least 50%. Test substances are typically administered 5-60 minutes prior to testing. The animals are then placed individually into clean, clear polycarbonate cages (20 cm (width) by 40 cm (length) by 20 cm (height), with a flat perforated, Perspex lid). Horizontal locomotor activity is determined by placing the cages within a frame containing a 3 by 6 array of photocells linked to a computer, which tabulates beam breaks. Mice are left undisturbed to explore for 1 hour, and the number of beams breaks made during this period serves as a record of locomotor activity which is compared with data for control animals for statistically significant differences.
A number of the exemplified compounds of the present invention were tested in this assay and the results obtained are shown in Table 3, below.

hA2B receptors = target: T1, hA2B receptors (Homo sapiens, UniProt P29275); test: Adenosine receptor binding: binding affinities at hA2B receptors ([3H]-ZM241385 displacement); conditions: Table 1; for Ki: [3H]-ZM241385 displacement, HEK-293 membranes, read-out: Binding Affinity hA2B-Ki; for Binding Selectivity A2b/A2a: ratio of Ki values
T1 construct: host or cells: HEK-293
T1 sequence (P29275 1-332): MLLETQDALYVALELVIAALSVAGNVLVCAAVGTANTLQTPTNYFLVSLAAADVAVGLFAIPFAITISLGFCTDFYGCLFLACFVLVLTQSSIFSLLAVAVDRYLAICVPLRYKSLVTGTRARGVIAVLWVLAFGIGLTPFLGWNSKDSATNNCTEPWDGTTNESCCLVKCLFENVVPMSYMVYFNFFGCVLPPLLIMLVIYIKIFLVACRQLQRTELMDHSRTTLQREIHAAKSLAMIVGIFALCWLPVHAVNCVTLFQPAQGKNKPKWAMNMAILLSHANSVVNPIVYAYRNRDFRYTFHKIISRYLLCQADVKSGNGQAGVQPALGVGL

[2] = target: T2, human adenosine A2A receptors (Homo sapiens, UniProt P29274); test: Adenosine receptor binding: binding affinities at hA2A receptors ([3H]CGS-21680 displacement); conditions: Table 1; [3H]CGS-21680 displacement, HEK-293 membranes; read-out: Binding Affinity hA2A-Ki
T2 construct: host or cells: HEK-293
Experimental: Adenosine Receptor Binding: Binding Affinities at hA2A Receptors
(§1) The resultant homogenate was kept for immediate use in the binding assay. Binding assays were performed in a total volume of 250 μL, containing [^3H]-CGS21680 (20.0 nM), membranes and additional drugs. Total binding was determined using drug dilution buffer (50 mM Tris-HCl pH 7.5, 10 mM MgCl2, 5% DMSO). Non-specific binding was determined using 300 μM CHA. […] Filters were left to dry overnight, and Microscint-0 scintillation fluid was then added to the filters. The filters were then left for at least 2 hours before the radioactivity was assessed using a Canberra Packard TopCount microplate scintillation counter.
To determine the free ligand concentration, three vials were counted with 25 μL of [^3H]CGS21680 containing 4 mL of Ultima-Gold MV scintillant on a Beckman LS6500 multi-purpose scintillation counter.
(§2) Data was analysed using a 4 parameter logistical equation and non-linear regression which yields affinity constants (pIC50), and slope parameters:
(§3) [formula] where E is the quantity of binding and [A] is the competitor concentration. The Ki is then determined using the Cheng-Prusoff equation: […]

[3] = target: T3, human adenosine A1 receptors (Homo sapiens, UniProt P30542); test: Adenosine receptor binding: binding affinities at hA1 receptors ([3H]DPCPX displacement); conditions: Table 1; for Ki: [3H]DPCPX displacement, CHO-K1 membranes, read-out: Binding Affinity hA1-Ki; for Binding Selectivity A1/A2a: ratio of Ki values
T3 construct: expressed in transfected cells; host or cells: CHO-K1
T3 sequence (P30542 1-326): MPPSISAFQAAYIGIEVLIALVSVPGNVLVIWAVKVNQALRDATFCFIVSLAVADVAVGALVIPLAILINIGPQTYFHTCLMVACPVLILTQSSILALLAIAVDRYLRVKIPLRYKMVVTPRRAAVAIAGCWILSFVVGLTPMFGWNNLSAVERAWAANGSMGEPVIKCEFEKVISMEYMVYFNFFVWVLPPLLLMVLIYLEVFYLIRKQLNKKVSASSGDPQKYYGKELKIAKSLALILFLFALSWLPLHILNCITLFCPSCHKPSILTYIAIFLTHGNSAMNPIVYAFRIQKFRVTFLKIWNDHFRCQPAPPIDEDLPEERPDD
Experimental: Adenosine Receptor Binding: Binding Affinities at hA1 Receptors
The resultant homogenate was kept for immediate use in the binding.
as §1, with “Binding” for “The resultant homogenate was kept for immediate use in the binding assay. Binding”, “[^3H]-DPCPX (3.0” for “[^3H]-CGS21680 (20.0”, “pH:7.5,” for “pH 7.5,”, “N6-cyclohexyladenosine (CHA).” for “CHA.”
To determine the free ligand concentration, three vials were counted with 25 μL of [^3H]DPCPX containing 4 mL of Ultima-Gold MV scintillant on a Beckman LS6500 multi-purpose scintillation counter.
as §2, §3

[4] = target: T4, human adenosine A3 receptors (Homo sapiens, UniProt P0DMS8); test: Adenosine receptor binding: binding affinities at hA3 receptors ([125I]-AB MECA displacement); conditions: Table 1; for Ki: [125I]-AB MECA displacement, CHO-K1 membranes, read-out: Binding Affinity hA3-Ki; for Binding Selectivity A3/A2a: ratio of Ki values
T4 construct: expressed in transfected cells; host or cells: CHO-K1
T4 sequence (P0DMS8 1-318): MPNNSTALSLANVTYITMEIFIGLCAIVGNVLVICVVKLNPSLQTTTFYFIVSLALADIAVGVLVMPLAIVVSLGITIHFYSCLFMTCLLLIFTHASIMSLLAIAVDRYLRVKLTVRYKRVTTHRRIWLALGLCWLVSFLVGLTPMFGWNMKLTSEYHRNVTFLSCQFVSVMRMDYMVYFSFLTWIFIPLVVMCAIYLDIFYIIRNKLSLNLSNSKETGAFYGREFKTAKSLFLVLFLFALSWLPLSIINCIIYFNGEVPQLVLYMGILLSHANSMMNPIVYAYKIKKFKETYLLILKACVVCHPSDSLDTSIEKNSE
Experimental: [formula] Adenosine Receptor Binding: Binding Affinities at hA3 Receptors
The resultant homogenate was kept for immediate use in the binding assay.
Total binding was determined using drug dilution buffer (50 mM Tris-HCl pH 7.5, 10 mM MgCl2, 5% DMSO). Non-specific binding was determined using 10 μM IB-MECA. […] Filters were left to dry overnight, and Microscint-0 scintillation fluid was then added to the filters. The filters were then left for at least 2 hours before the radioactivity was assessed using a Canberra Packard TopCount microplate scintillation counter.
as §2, §3

T2 sequence (P29274 whole entry): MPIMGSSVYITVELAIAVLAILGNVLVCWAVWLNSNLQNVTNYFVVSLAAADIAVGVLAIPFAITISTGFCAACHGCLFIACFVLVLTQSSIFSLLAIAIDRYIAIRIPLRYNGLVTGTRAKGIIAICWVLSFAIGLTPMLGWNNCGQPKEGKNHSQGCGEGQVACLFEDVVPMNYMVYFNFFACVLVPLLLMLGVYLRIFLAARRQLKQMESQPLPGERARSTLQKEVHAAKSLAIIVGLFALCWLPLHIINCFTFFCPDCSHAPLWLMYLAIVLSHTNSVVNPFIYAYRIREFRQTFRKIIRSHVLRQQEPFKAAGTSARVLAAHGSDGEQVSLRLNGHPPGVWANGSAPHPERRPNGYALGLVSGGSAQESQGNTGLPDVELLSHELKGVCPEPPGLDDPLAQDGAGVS

Compound	Ki (hA2B receptors) [nM]	Binding Selectivity A2b/A2a (hA2B receptors)	Ki [2] [nM]	Ki [3] [nM]	Binding Selectivity A1/A2a [3]	Ki [4] [nM]	Binding Selectivity A3/A2a [4]	In Vivo activity HaloLMA MED [1] [mg/kg]
Cc1ccc(-c2nc(N)nc3c2nnn3Cc2cccc(COCC(F)(F)F)n2)o1 [Example 37, 7-(5-methylfuran-2-yl)-3-(6-[2,2,2-trifluoroethyl]oxymethylpyrid-2-ylmethyl)-3H-[1,2,3]triazolo[4,5-d]pyrimidin-5-amine]	2380	536	4.4	231	52	2490	560	1
CC(C)(O)c1cccc(Cn2nnc3c(-c4cccc(C#N)c4)nc(N)nc32)n1 [Example 20, 7-(3-cyanophenyl)-3-(6-[1-hydroxy-1-methylethyl]pyrid-2-ylmethyl)-3H-[1,2,3]triazolo[4,5-d]pyrimidin-5-amine]	1240	93	13.4	731	54		634	3
COc1cccc(-c2nc(N)nc3c2nnn3Cc2cccc(C(C)(C)O)n2)c1 [Example 14, 7-(3-methoxyphenyl)-3-(6-[1-hydroxy-1-methylethyl]pyrid-2-ylmethyl)-3H-[1,2,3]triazolo[4,5-d]pyrimidin-5-amine]	437	73	6	498	83	613	102	30
COCc1cccc(Cn2nnc3c(-c4cccc(OC)c4)nc(N)nc32)n1 [Example 18, 7-(3-methoxyphenyl)-3-(6-[methoxymethyl]pyrid-2-ylmethyl)-3H-[1,2,3]triazolo[4,5-d]pyrimidin-5-amine]								<30
Nc1nc(-c2nccs2)c2nnn(Cc3cccc(CO[C@H]4CCOC4)n3)c2n1 [Example 38, S-7-(thiazol-2-yl)-3-(6-[tetrahydrofuran-3-yl]oxymethylpyrid-2-ylmethyl)-3H-[1,2,3]triazolo[4,5-d]pyrimidin-5-amine]	2980	105	28.4	2090	73			10
COCc1cccc(Cn2nnc3c(-c4cccc(C#N)c4)nc(N)nc32)n1 [Example 24, 7-(3-cyanophenyl)-3-(6-[methoxymethyl]pyrid-2-ylmethyl)-3H-[1,2,3]triazolo[4,5-d]pyrimidin-5-amine]								10
Cc1csc(-c2nc(N)nc3c2nnn3Cc2cccc(CO[C@H]3CCOC3)n2)n1 [Example 25, S-7-(4-methylthiazol-2-yl)-3-(6-[tetrahydrofuran-3-yl]oxymethylpyrid-2-ylmethyl)-3H-[1,2,3]triazolo[4,5-d]pyrimidin-5-amine]								3

More lines, main results first:

Ki (hA2B receptors) [nM]	Binding Selectivity A2b/A2a (hA2B receptors)	Ki [2] [nM]	Ki [3] [nM]	Binding Selectivity A1/A2a [3]	Ki [4] [nM]	Binding Selectivity A3/A2a [4]	Compound	In Vivo activity HaloLMA MED [1] [mg/kg]
1130	366	3.1	196	63	1640	528	Cc1ccc(-c2nc(N)nc3c2nnn3Cc2cccc(C3(O)CCCCC3)n2)o1 [Example 4, 7-(5-methylfuran-2-yl)-3-(6-[1-hydroxy-1-cyclohexyl]pyrid-2-ylmethyl)-3H-[1,2,3]triazolo[4,5-d]pyrimidin-5-amine]	3
4200	980	4.3	853	199		1989	Cc1ccc(-c2nc(N)nc3c2nnn3Cc2cccc(C3(O)CCOCC3)n2)o1 [Example 5, 7-(5-methylfuran-2-yl)-3-(6-[4-hydroxyetrahydropyran-4-yl]pyrid-2-ylmethyl)-3H-[1,2,3]triazolo[4,5-d]pyrimidin-5-amine]	3
		4.5	422	93	939	208	COC(C)(C)OCc1cccc(Cn2nnc3c(-c4ccc(C)o4)nc(N)nc32)n1 [Example 36, 7-(5-methylfuran-2-yl)-3-(6-[1-methoxy-1-methylethyl]oxymethylpyrid-2-ylmethyl)-3H-[1,2,3]triazolo[4,5-d]pyrimidin-5-amine]	1 to 3
3410	347	9.8	706	72			Nc1nc(-c2ccccc2)c2nnn(Cc3cccc(C4(O)CCCC4)n3)c2n1 [Example 9, 7-phenyl-3-(6-[1-hydroxy-1-cyclopentyl]pyrid-2-ylmethyl)-3H-[1,2,3]triazolo[4,5-d]pyrimidin-5-amine]	10
